# Data reported in PubChem BioAssay AID330 (DTP/NCI, 2004).
# Several values for one entry are separate records, joined by “and”; a condition that tells them apart may be missing. Equal entries are not always repeated. Inconclusive results and toxic doses are left out.
# Test system: P388 leukemia ip, CD2F1 mice, survival T/C
# Test: NCI In Vivo Anticancer Drug Screen. Data for tumor model P388 Leukemia (intraperitoneal) in CD2F1 (CDF1) mice
# Conditions: endpoint: median survival time, higher = longer survival
# Procedure, shortened: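 Mice carrying the transplanted tumor received test compound or vehicle. Survival was recorded in each group, and the value is the treated-group measurement divided by that of the vehicle-treated control group.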
# [1] = dose: 100.0 mg/kg/injection, schedule: Q04DX003 (ip), vehicle: saline with Tween-80
# [2] = dose: 200.0 mg/kg/injection, schedule: Q04DX003 (ip), vehicle: saline with Tween-80
# [3] = dose: 400.0 mg/kg/injection, schedule: Q04DX003 (ip), vehicle: saline with Tween-80
# [4] = dose: 60.0 mg/kg/injection, schedule: Q01DX005 (ip), vehicle: Klucel (hydroxypropylcellulose) (HPC)
# [5] = dose: 120.0 mg/kg/injection, schedule: Q01DX005 (ip), vehicle: Klucel (hydroxypropylcellulose) (HPC)
# [6] = dose: 240.0 mg/kg/injection, schedule: Q01DX005 (ip), vehicle: Klucel (hydroxypropylcellulose) (HPC)
# [7] = dose: 12.5 mg/kg/injection, schedule: Q01DX009 (ip), vehicle: saline with Tween-80
# [8] = dose: 25.0 mg/kg/injection, schedule: Q01DX009 (ip), vehicle: saline with Tween-80
# [9] = dose: 6.25 mg/kg/injection, schedule: Q01DX009 (ip), vehicle: saline
# [10] = dose: 50.0 mg/kg/injection, schedule: Q01DX005 (ip), vehicle: saline with Tween-80
# [11] = dose: 100.0 mg/kg/injection, schedule: Q01DX005 (ip), vehicle: saline with Tween-80
# [12] = dose: 200.0 mg/kg/injection, schedule: Q01DX005 (ip), vehicle: saline with Tween-80
# [13] = dose: 50.0 mg/kg/injection, schedule: Q01DX005 (ip), vehicle: Klucel (hydroxypropylcellulose) (HPC)
# [14] = dose: 100.0 mg/kg/injection, schedule: Q01DX005 (ip), vehicle: Klucel (hydroxypropylcellulose) (HPC)
# [15] = dose: 200.0 mg/kg/injection, schedule: Q01DX005 (ip), vehicle: Klucel (hydroxypropylcellulose) (HPC)
# [16] = dose: 12.5 mg/kg/injection, schedule: Q04DX003 (ip), vehicle: saline with Tween-80
# [17] = dose: 50.0 mg/kg/injection, schedule: Q01DX009 (ip), vehicle: saline with Tween-80
# [18] = dose: 50.0 mg/kg/injection, schedule: Q04DX003 (ip), vehicle: saline with Tween-80
# [19] = dose: 100.0 mg/kg/injection, schedule: Q01DX009 (ip), vehicle: saline with Tween-80
# [20] = dose: 25.0 mg/kg/injection, schedule: Q01DX009 (ip), vehicle: other
# [21] = dose: 50.0 mg/kg/injection, schedule: Q01DX009 (ip), vehicle: other
# [22] = dose: 200.0 mg/kg/injection, schedule: Q01DX009 (ip), vehicle: saline with Tween-80
structure (smiles),measurement,setting,value
Cc1c(Cl)c(C)c(Cl)c(O)c1Cl,T/C,[1],104 % of control
same,T/C,[2],100 % of control
same,T/C,[3],104 % of control
CC1(C)SC(C2NC(=O)C(c3ccccc3)NC2=O)NC1C(=O)O (stereo unspecified),T/C,[4],105 % of control
same,T/C,[5],99 % of control
same,T/C,[6],101 % of control
O=c1oc2ccc(Cl)cc2c2c1OC(c1ccccc1)CN2 (stereo unspecified),T/C,"dose: 3.13 mg/kg/injection, schedule: Q01DX009 (ip), vehicle: saline with Tween-80",110 % of control
same,T/C,"dose: 6.25 mg/kg/injection, schedule: Q01DX009 (ip), vehicle: saline with Tween-80",110 % of control
same,T/C,[7],103 % of control
same,T/C,[8],103 % of control
C[n+]1cc2ccccc2c2ccccc21,T/C,"dose: 3.13 mg/kg/injection, schedule: Q01DX009 (ip), vehicle: saline",108 % of control
same,T/C,[9],117 % of control
same,T/C,"dose: 12.5 mg/kg/injection, schedule: Q01DX005 (ip), vehicle: saline",100 % of control
same,T/C,"dose: 12.5 mg/kg/injection, schedule: Q01DX009 (ip), vehicle: saline",120 % of control
same,T/C,"dose: 25.0 mg/kg/injection, schedule: Q01DX005 (ip), vehicle: saline",110 % of control
same,T/C,"dose: 25.0 mg/kg/injection, schedule: Q01DX009 (ip), vehicle: water",122 % of control
same,T/C,"dose: 50.0 mg/kg/injection, schedule: Q01DX005 (ip), vehicle: saline",101 % of control
same,T/C,"dose: 50.0 mg/kg/injection, schedule: Q01DX009 (ip), vehicle: water",113 % of control
COC1=CC(=C(c2ccc(O)c(OC)c2)c2ccc(O)c(OC)c2)C=CC1=O,T/C,[10],117 % of control
same,T/C,[11],119 % of control
same,T/C,[12],115 % of control
Cc1ccc(C2C=CC(C#N)=CN2Cc2ccccc2)cc1 (stereo unspecified),T/C,[13],99 % of control
same,T/C,[14],104 % of control
same,T/C,[15],101 % of control
CCOC(=O)C(Cc1ccc(N(CCCl)CCCl)cc1)NC=O (stereo unspecified),T/C,"dose: 6.25 mg/kg/injection, schedule: Q04DX003 (ip), vehicle: saline with Tween-80",150 % of control
same,T/C,[16],154 % of control
same,T/C,[8],181 % of control
same,T/C,[17],209 % of control
same,T/C,[18],181 % of control
same,T/C,[19],100 % of control
same,T/C,[1],204 % of control and 216 % of control
same,T/C,[2],91 % of control
COc1cccc(C2c3cc4c(cc3OC(O)C2C)OCO4)c1O (stereo unspecified),T/C,[4],99 % of control
same,T/C,[5],99 % of control
same,T/C,[6],100 % of control
COc1cc(C(=O)NNC(=O)C2CCC(=O)N2Cc2ccccc2)cc(OC)c1OC (stereo unspecified),T/C,"dose: 60.0 mg/kg/injection, schedule: Q01DX005 (ip), vehicle: saline with Tween-80",89 % of control
same,T/C,"dose: 120.0 mg/kg/injection, schedule: Q01DX005 (ip), vehicle: saline with Tween-80",90 % of control
same,T/C,"dose: 240.0 mg/kg/injection, schedule: Q01DX005 (ip), vehicle: saline with Tween-80",87 % of control
O=P1(c2ccccc2)C=C(c2ccccc2)NC(c2ccccc2)=C1,T/C,[10],93 % of control
same,T/C,[12],90 % of control
CCNC1CC(C)(O)Cc2cc3c(c(O)c21)C(=O)c1c(O)cc2c(c1C3=O)OC1OC2(C)C(O)C(N(C)C)C1O (stereo unspecified),T/C,"dose: 6.25 mg/kg/injection, schedule: Q01DX009 (ip), vehicle: other",123 % of control
same,T/C,[20],154 % of control
same,T/C,[21],120 % of control
CCN(CC)CCOc1ccc(Cl)c(Cl)c1,T/C,[10],101 % of control
same,T/C,[11],106 % of control
same,T/C,[12],106 % of control
COc1ccc(C(=O)O)c(N)c1,T/C,[19],90 % of control
same,T/C,[22],95 % of control
same,T/C,"dose: 400.0 mg/kg/injection, schedule: Q01DX009 (ip), vehicle: saline with Tween-80",109 % of control
Fc1cccc(Cl)c1C(Nc1cnccn1)Nc1cnccn1,T/C,[4],104 % of control
same,T/C,[5],119 % of control
CC(C)(C)N=C(CCSc1ccccc1)Nc1ccccc1Cl,T/C,[17],108 % of control
same,T/C,[19],109 % of control
same,T/C,[22],113 % of control
O=C1c2nc[nH]c2C(=O)c2c1nc[nH]c2=O,T/C,"dose: 3.75 mg/kg/injection, schedule: Q01DX005 (ip), vehicle: other",101 % of control
same,T/C,"dose: 7.5 mg/kg/injection, schedule: Q01DX005 (ip), vehicle: other",100 % of control
same,T/C,"dose: 15.0 mg/kg/injection, schedule: Q01DX005 (ip), vehicle: other",106 % of control
same,T/C,"dose: 30.0 mg/kg/injection, schedule: Q01DX005 (ip), vehicle: other",102 % of control
Cc1cc(N)cc(N)c1O,T/C,"dose: 1.56 mg/kg/injection, schedule: Q01DX009 (ip), vehicle: saline",97 % of control
same,T/C,"dose: 3.12 mg/kg/injection, schedule: Q01DX009 (ip), vehicle: saline",95 % of control
same,T/C,[9],97 % of control
O=C(O)C1=C(C=C(c2ccccc2)c2ccccc2)OCCC1,T/C,[7],92 % of control
same,T/C,[8],90 % of control
same,T/C,[17],91 % of control
same,T/C,[22],97 % of control
Oc1ccc(/C=N/NC(=S)Nc2ccccc2)nc1,T/C,"dose: 265.0 mg/kg/injection, schedule: Q04DX003 (ip), vehicle: Klucel (hydroxypropylcellulose) (HPC)",114 % of control
same,T/C,"dose: 400.0 mg/kg/injection, schedule: Q04DX003 (ip), vehicle: Klucel (hydroxypropylcellulose) (HPC)",123 % of control
same,T/C,"dose: 600.0 mg/kg/injection, schedule: Q04DX003 (ip), vehicle: Klucel (hydroxypropylcellulose) (HPC)",117 % of control
COC(=O)/C(C(C)=O)=C1\C(=O)OCC1(C)C,T/C,"dose: 100.0 mg/kg/injection, schedule: Q04DX003 (ip), vehicle: saline",102 % of control
same,T/C,"dose: 200.0 mg/kg/injection, schedule: Q04DX003 (ip), vehicle: saline",105 % of control
same,T/C,"dose: 400.0 mg/kg/injection, schedule: Q04DX003 (ip), vehicle: saline",100 % of control
C(#Cc1c2ccccc2c(C#Cc2ccccc2)c2c(-c3ccccc3)cccc12)c1ccccc1,T/C,[10],97 % of control
same,T/C,[11],87 % of control
CSc1ccc(Cl)cc1NC(=O)N(C)C,T/C,[1],98 % of control
same,T/C,[2],98 % of control
same,T/C,[3],96 % of control
COC(=O)c1c2c(nc3ccccc13)-c1ccccc1C(C)(C)C2,T/C,[13],92 % of control
same,T/C,[14],95 % of control
same,T/C,[15],96 % of control
CCCCCCCCCCCCCCCCC1(O)OC(=O)C(C)=C1C (stereo unspecified),T/C,[16],100 % of control
same,T/C,"dose: 25.0 mg/kg/injection, schedule: Q04DX003 (ip), vehicle: saline with Tween-80",108 % of control
same,T/C,[18],106 % of control
CC(C)(C)OC(=O)NNS(=O)(=O)CCC(NC(=O)OCc1ccccc1)C(=O)OCc1ccccc1 (stereo unspecified),T/C,"dose: 12.5 mg/kg/injection, schedule: Q01DX009 (ip), vehicle: other",100 % of control
same,T/C,[20],97 % of control
same,T/C,[21],92 % of control
same,T/C,"dose: 100.0 mg/kg/injection, schedule: Q01DX009 (ip), vehicle: other",88 % of control
same,T/C,"dose: 200.0 mg/kg/injection, schedule: Q01DX009 (ip), vehicle: other",90 % of control
CCCCCCCCCCCCCCCCS(=O)(=O)CCO,T/C,[17],95 % of control
same,T/C,[19],90 % of control
same,T/C,[22],86 % of control
Cc1nc2c([N+](=O)[O-])cc(C(=O)O)cc2[nH]1,T/C,"dose: 60.0 mg/kg/injection, schedule: Q01DX005 (ip), vehicle: saline",100 % of control
same,T/C,"dose: 120.0 mg/kg/injection, schedule: Q01DX005 (ip), vehicle: saline",97 % of control
same,T/C,"dose: 240.0 mg/kg/injection, schedule: Q01DX005 (ip), vehicle: saline",87 % of control
Cc1ccc(S(=O)(=O)N/N=C2/CCCC(S(=O)(=O)c3ccc(C)cc3)C2)cc1 (stereo unspecified),T/C,"dose: 25.0 mg/kg/injection, schedule: Q01DX005 (ip), vehicle: saline with Tween-80",111 % of control
same,T/C,[10],98 % of control
same,T/C,[11],93 % of control
COC(=O)c1[nH]c(=O)c2ccc([N+](=O)[O-])cc2c1O,T/C,[17],86 % of control
same,T/C,[19],88 % of control
same,T/C,[22],86 % of control
O=C(O)c1ccc(N2C(=O)C3C4CCC(O4)C3C2=O)cc1 (stereo unspecified),T/C,"dose: 6.25 mg/kg/injection, schedule: Q01DX005 (ip), vehicle: saline with Tween-80",101 % of control
same,T/C,"dose: 12.5 mg/kg/injection, schedule: Q01DX005 (ip), vehicle: saline with Tween-80",101 % of control
